Measured values reported in ChEMBL document CHEMBL2390898, “Optimizing the control of apoptosis by amide/triazole isosteric substitution in a constrained peptoid” (Eur J Med Chem, 2013).
Activity calls are given as the source filed them. The rule behind the calls is not given here.

Legend:
Caspase-9 (Homo sapiens) = target: T1, Caspase-9 (Homo sapiens) (UniProt P55211); assay: Inhibition of recombinant caspase-9 (unknown origin)
T1 sequence (whole entry): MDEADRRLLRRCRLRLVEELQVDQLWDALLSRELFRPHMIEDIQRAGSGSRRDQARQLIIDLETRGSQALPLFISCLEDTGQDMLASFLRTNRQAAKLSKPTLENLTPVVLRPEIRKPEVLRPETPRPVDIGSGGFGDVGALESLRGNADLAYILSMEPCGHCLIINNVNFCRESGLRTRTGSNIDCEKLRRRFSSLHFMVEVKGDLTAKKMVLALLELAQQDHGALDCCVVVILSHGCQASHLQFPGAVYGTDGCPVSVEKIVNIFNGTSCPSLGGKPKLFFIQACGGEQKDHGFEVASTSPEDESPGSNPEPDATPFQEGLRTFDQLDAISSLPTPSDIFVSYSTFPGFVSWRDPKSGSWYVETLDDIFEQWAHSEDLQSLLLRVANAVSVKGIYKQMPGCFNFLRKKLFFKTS

[1] = target: T2, Apoptotic protease-activating factor 1 (Homo sapiens) (UniProt O14727); assay: Binding affinity to Apaf1 (unknown origin) assessed as inhibition of procaspase-9 activity
T2 sequence (whole entry): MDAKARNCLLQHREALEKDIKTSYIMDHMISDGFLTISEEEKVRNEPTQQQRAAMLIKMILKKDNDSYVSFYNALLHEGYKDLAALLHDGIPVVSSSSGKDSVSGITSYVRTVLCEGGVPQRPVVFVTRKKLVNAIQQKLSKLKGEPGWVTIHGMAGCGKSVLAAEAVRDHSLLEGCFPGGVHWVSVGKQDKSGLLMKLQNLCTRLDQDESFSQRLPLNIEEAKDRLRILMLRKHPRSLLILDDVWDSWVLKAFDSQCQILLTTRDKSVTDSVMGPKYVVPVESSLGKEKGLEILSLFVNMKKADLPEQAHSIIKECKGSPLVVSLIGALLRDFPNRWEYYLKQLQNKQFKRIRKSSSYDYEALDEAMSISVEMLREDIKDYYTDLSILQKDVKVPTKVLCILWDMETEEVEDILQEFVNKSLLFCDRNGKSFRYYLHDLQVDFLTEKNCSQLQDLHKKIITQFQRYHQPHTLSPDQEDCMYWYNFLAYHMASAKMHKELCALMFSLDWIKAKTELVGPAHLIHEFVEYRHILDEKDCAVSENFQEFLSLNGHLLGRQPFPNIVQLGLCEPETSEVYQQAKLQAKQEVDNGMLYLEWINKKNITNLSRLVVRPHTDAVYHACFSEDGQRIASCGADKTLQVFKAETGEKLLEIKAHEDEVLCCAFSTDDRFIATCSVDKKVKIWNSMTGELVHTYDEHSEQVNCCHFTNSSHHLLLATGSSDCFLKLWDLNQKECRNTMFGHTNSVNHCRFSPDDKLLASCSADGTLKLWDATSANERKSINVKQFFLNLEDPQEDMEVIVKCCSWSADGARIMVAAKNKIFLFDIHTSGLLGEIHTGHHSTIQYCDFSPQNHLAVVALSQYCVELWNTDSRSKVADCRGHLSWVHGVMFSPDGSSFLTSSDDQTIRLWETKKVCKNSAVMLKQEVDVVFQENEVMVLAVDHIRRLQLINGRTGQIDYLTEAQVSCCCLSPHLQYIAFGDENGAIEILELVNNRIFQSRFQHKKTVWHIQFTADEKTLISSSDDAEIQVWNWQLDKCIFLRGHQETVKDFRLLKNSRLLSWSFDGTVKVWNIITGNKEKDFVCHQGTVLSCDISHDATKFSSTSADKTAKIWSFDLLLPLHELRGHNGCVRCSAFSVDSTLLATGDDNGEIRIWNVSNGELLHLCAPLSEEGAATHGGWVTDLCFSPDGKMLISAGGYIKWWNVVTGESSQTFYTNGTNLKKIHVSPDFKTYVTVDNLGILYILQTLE

inhibition (Caspase-9 (Homo sapiens))	inhibition [1]	Compound
inactive	Active	NC(=O)CN(CCc1ccc(Cl)cc1Cl)C(=O)CC1C(=O)N(CCc2ccc(Cl)cc2Cl)CC(=O)N1CCC(c1ccccc1)c1ccccc1 (racemic)
inactive	Active	O=C1C(c2cn(CCc3ccc(Cl)cc3Cl)nn2)N(CCC(c2ccccc2)c2ccccc2)C(=O)CN1CCc1ccc(Cl)cc1Cl (stereo not drawn)
inactive	Active	O=C1C(c2cnnn2CCc2ccc(Cl)cc2Cl)N(CCC(c2ccccc2)c2ccccc2)C(=O)CN1CCc1ccc(Cl)cc1Cl (racemic)
inactive	Active	O=C1CC(C(=O)NCCc2ccc(Cl)cc2Cl)(c2cnn(CCc3ccc(Cl)cc3Cl)n2)N1CCC(c1ccccc1)c1ccccc1 (racemic)
